Test system: rodent lifetime carcinogenesis bioassay, tumor incidence TD50
Test: carcinogenic potency in animals, long-term in vivo studies, CPDB compilation (AID 1745844)
Conditions: mouse, strain B6C3F1, males, inhaled

C=CC=C
TD50 (site: all sites, lesion: malignant lymphoma, mixed type + malignant lymphoma, lymphocytic type + malignant lymphoma, dosed 26 weeks, study length 104 weeks): 31.3 mg/kg/day
TD50 (site: all sites, lesion: malignant lymphoma, mixed type + malignant lymphoma, lymphocytic type + malignant lymphoma, dosed 40 weeks, study length 104 weeks): 108 mg/kg/day
TD50 (site: all sites, lesion: malignant lymphoma, mixed type + malignant lymphoma, lymphocytic type + malignant lymphoma, dosed 52 weeks, study length 104 weeks): 46.4 mg/kg/day
TD50 (site: all sites, lesion: malignant lymphoma, mixed type + malignant lymphoma, dosed 13 weeks, study length 104 weeks): 78.1 mg/kg/day
TD50 (site: all sites, lesion: malignant lymphoma, mixed type + malignant lymphoma, dosed 26 weeks, study length 104 weeks): 111 mg/kg/day
TD50 (site: all sites, lesion: malignant lymphoma, mixed type + malignant lymphoma, dosed 40 weeks, study length 104 weeks): 487 mg/kg/day
TD50 (site: all sites, lesion: malignant lymphoma, mixed type + malignant lymphoma, dosed 52 weeks, study length 104 weeks): 76.2 mg/kg/day
TD50 (site: any site (literature study), lesion: several types, types named in the paper, dosed 13 weeks, study length 104 weeks): 6.92 mg/kg/day
TD50 (site: any site (literature study), lesion: several types, types named in the paper, dosed 26 weeks, study length 104 weeks): 12.5 mg/kg/day
TD50 (site: any site (literature study), lesion: several types, types named in the paper, dosed 40 weeks, study length 104 weeks): 10.8 mg/kg/day
TD50 (site: any site (literature study), lesion: several types, types named in the paper, dosed 52 weeks, study length 104 weeks): 5.84 mg/kg/day
TD50 (site: any site (literature study), lesion: several types, types named in the paper, dosed 60 weeks, study length 60 weeks): 28.8 mg/kg/day
TD50 (site: any site (literature study), lesion: several types, types named in the paper, dosed 82 weeks, study length 104 weeks): 10.5 mg/kg/day
TD50 (site: brain, lesion: olfactory lobe, glioma malignant, dosed 13 weeks, study length 104 weeks): 230 mg/kg/day
TD50 (site: brain, lesion: olfactory lobe, glioma malignant, dosed 26 weeks, study length 104 weeks): 403 mg/kg/day
TD50 (site: brain, lesion: olfactory lobe, neuroblastoma malignant, dosed 13 weeks, study length 104 weeks): 394 mg/kg/day
TD50 (site: forestomach, lesion: papilloma, NOS + squamous-cell carcinoma + squamous-cell papilloma, dosed 60 weeks, study length 60 weeks): 120 mg/kg/day
TD50 (site: forestomach, lesion: papilloma, NOS + squamous-cell papilloma, dosed 60 weeks, study length 60 weeks): 140 mg/kg/day
TD50 (site: forestomach, lesion: squamous-cell carcinoma + squamous-cell papilloma, dosed 13 weeks, study length 104 weeks): 44.8 mg/kg/day
TD50 (site: forestomach, lesion: squamous-cell carcinoma + squamous-cell papilloma, dosed 26 weeks, study length 104 weeks): 91.4 mg/kg/day
TD50 (site: forestomach, lesion: squamous-cell carcinoma + squamous-cell papilloma, dosed 40 weeks, study length 104 weeks): 171 mg/kg/day
TD50 (site: forestomach, lesion: squamous-cell carcinoma + squamous-cell papilloma, dosed 52 weeks, study length 104 weeks): 42.8 mg/kg/day
TD50 (site: forestomach, lesion: squamous-cell carcinoma + squamous-cell papilloma, dosed 60 weeks, study length 60 weeks): 557 mg/kg/day
TD50 (site: forestomach, lesion: squamous-cell carcinoma + squamous-cell papilloma, dosed 82 weeks, study length 104 weeks): 197 mg/kg/day
TD50 (site: forestomach, lesion: squamous-cell carcinoma, dosed 13 weeks, study length 104 weeks): 43.4 mg/kg/day
TD50 (site: forestomach, lesion: squamous-cell carcinoma, dosed 26 weeks, study length 104 weeks): 136 mg/kg/day
TD50 (site: forestomach, lesion: squamous-cell carcinoma, dosed 52 weeks, study length 104 weeks): 154 mg/kg/day
TD50 (site: forestomach, lesion: squamous-cell papilloma, dosed 13 weeks, study length 104 weeks): 117 mg/kg/day
TD50 (site: forestomach, lesion: squamous-cell papilloma, dosed 26 weeks, study length 104 weeks): 284 mg/kg/day
TD50 (site: forestomach, lesion: squamous-cell papilloma, dosed 40 weeks, study length 104 weeks): 171 mg/kg/day
TD50 (site: forestomach, lesion: squamous-cell papilloma, dosed 52 weeks, study length 104 weeks): 77.7 mg/kg/day
TD50 (site: forestomach, lesion: squamous-cell papilloma, dosed 82 weeks, study length 104 weeks): 230 mg/kg/day
TD50 (site: heart + peritoneal cavity, lesion: hemangiosarcoma, dosed 60 weeks, study length 60 weeks): 96.7 mg/kg/day
TD50 (site: heart, lesion: hemangiosarcoma, dosed 13 weeks, study length 104 weeks): 32.6 mg/kg/day
TD50 (site: heart, lesion: hemangiosarcoma, dosed 26 weeks, study length 104 weeks): 18.5 mg/kg/day
TD50 (site: heart, lesion: hemangiosarcoma, dosed 40 weeks, study length 104 weeks): 21.9 mg/kg/day
TD50 (site: heart, lesion: hemangiosarcoma, dosed 52 weeks, study length 104 weeks): 13.9 mg/kg/day
TD50 (site: heart, lesion: hemangiosarcoma, dosed 60 weeks, study length 60 weeks): 96.7 mg/kg/day
TD50 (site: heart, lesion: hemangiosarcoma, dosed 82 weeks, study length 104 weeks): 64.8 mg/kg/day
TD50 (site: jejunum, lesion: carcinoma, dosed 82 weeks, study length 104 weeks): 310 mg/kg/day
TD50 (site: kidney, lesion: adenoma + tubule adenoma, dosed 52 weeks, study length 104 weeks): 190 mg/kg/day
TD50 (site: kidney, lesion: tubule adenoma, dosed 13 weeks, study length 104 weeks): 201 mg/kg/day
TD50 (site: kidney, lesion: tubule adenoma, dosed 26 weeks, study length 104 weeks): 961 mg/kg/day
TD50 (site: kidney, lesion: tubule adenoma, dosed 40 weeks, study length 104 weeks): 161 mg/kg/day
TD50 (site: kidney, lesion: tubule adenoma, dosed 82 weeks, study length 104 weeks): 268 mg/kg/day
TD50 (site: liver, lesion: hepatoblastoma + hepatocellular carcinoma, dosed 13 weeks, study length 104 weeks): 23.4 mg/kg/day
TD50 (site: liver, lesion: hepatoblastoma + hepatocellular carcinoma, dosed 26 weeks, study length 104 weeks): 60 mg/kg/day
TD50 (site: liver, lesion: hepatoblastoma + hepatocellular carcinoma, dosed 52 weeks, study length 104 weeks): 41.4 mg/kg/day
TD50 (site: liver, lesion: hepatocellular adenoma + hepatoblastoma + hepatocellular carcinoma, dosed 13 weeks, study length 104 weeks): 15.1 mg/kg/day
TD50 (site: liver, lesion: hepatocellular adenoma + hepatoblastoma + hepatocellular carcinoma, dosed 26 weeks, study length 104 weeks): 23.8 mg/kg/day
TD50 (site: liver, lesion: hepatocellular adenoma + hepatoblastoma + hepatocellular carcinoma, dosed 52 weeks, study length 104 weeks): 13.8 mg/kg/day
TD50 (site: liver, lesion: hepatocellular adenoma + hepatocellular carcinoma + neoplastic nodule, dosed 13 weeks, study length 104 weeks): 15.1 mg/kg/day
TD50 (site: liver, lesion: hepatocellular adenoma + hepatocellular carcinoma + neoplastic nodule, dosed 26 weeks, study length 104 weeks): 23.8 mg/kg/day
TD50 (site: liver, lesion: hepatocellular adenoma + hepatocellular carcinoma + neoplastic nodule, dosed 40 weeks, study length 104 weeks): 16.8 mg/kg/day
TD50 (site: liver, lesion: hepatocellular adenoma + hepatocellular carcinoma + neoplastic nodule, dosed 52 weeks, study length 104 weeks): 14.6 mg/kg/day
